# Measured values taken from patent publication US12077503B2, “Substituted cyclic amides and their use as herbicides” (FMC CORPORATION, priority 2015, dated 2024).
# Key:
# Type in all cases: in vivo
# [1] = test system: ducksalad (Heteranthera limosa); experiment: Test B flooded paddy test; conditions: Flood, 250 g ai/ha; 0 to 100 scale where 0 is no effect and 100 is complete control; 13 to 15 d
# Outline: (§1)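 Flooding to 3 cm over soil accompanied treatment, which consisted of adding compound to the standing water around 2-leaf plants; depth was then maintained. Visual assessment versus controls followed at 13 to 15 d (scale 0–100, 0 meaning no effect).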
# [2] = test system: sedge, umbrella (small-flower umbrella sedge, Cyperus difformis); experiment: Test B flooded paddy test; conditions: Flood, 250 g ai/ha; 0 to 100 scale where 0 is no effect and 100 is complete control; 13 to 15 d
# Outline: as §1
# [3] = test system: barnyardgrass (Echinochloa crus-galli); experiment: Test B flooded paddy test; conditions: Flood, 250 g ai/ha; 0 to 100 scale where 0 is no effect and 100 is complete control; 13 to 15 d
# Outline: as §1
# [4] = test system: rice (Oryra sativa); experiment: Test B flooded paddy test; conditions: Flood, 250 g ai/ha; 0 to 100 scale where 0 is no effect and 100 is complete control; 13 to 15 d
# Outline: as §1
# [5] = test system: Kochia (Kochia scoparia); experiment: Test A preemergence; conditions: for Plant response rating, Kochia: 125 g ai/ha; for Kochia plant response rating (0 to 100 scale, 0 is no effect, 100 is complete control): visual injury approx. 10 d
# Outline: (§2)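 Seeds sprayed preemergence with a directed soil spray, or plants at 2 to 10 cm height and one- to two-leaf stage sprayed postemergence, with test chemicals in a non-phytotoxic solvent mixture containing surfactant, in loam soil–sand blend. Injury rated visually against untreated controls after about 10 d in greenhouse, 0 (no effect) to 100 (complete control).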
# [6] = test system: ryegrass, Italian (Italian ryegrass, Lolium multiflorum); experiment: Test A preemergence; conditions: for Plant response rating, Ryegrass, Italian: 125 g ai/ha; for Ryegrass, Italian plant response rating (0 to 100 scale, 0 is no effect, 100 is complete control): visual injury approx. 10 d
# Outline: as §2
# [7] = test system: giant foxtail (Setaria faberii); experiment: Test A preemergence; conditions: for Plant response rating, Foxtail, Giant: 125 g ai/ha; for Foxtail, Giant plant response rating (0 to 100 scale, 0 is no effect, 100 is complete control): visual injury approx. 10 d
# Outline: as §2
# [8] = test system: ragweed (common ragweed, Ambrosia elatior); experiment: Test A preemergence; conditions: for Plant response rating, Ragweed: 125 g ai/ha; for Ragweed plant response rating (0 to 100 scale, 0 is no effect, 100 is complete control): visual injury approx. 10 d
# Outline: as §2
# [9] = test system: barnyardgrass (Echinochloa crus-galli); experiment: Test A preemergence; conditions: for Plant response rating, Barnyardgrass: 125 g ai/ha; for Barnyardgrass plant response rating (0 to 100 scale, 0 is no effect, 100 is complete control): visual injury approx. 10 d
# Outline: as §2
# [10] = test system: pigweed (Amaranthus retroflexus); experiment: Test A preemergence; conditions: for Plant response rating, Pigweed: 125 g ai/ha; for Pigweed plant response rating (0 to 100 scale, 0 is no effect, 100 is complete control): visual injury approx. 10 d
# [11] = test system: Kochia (Kochia scoparia); experiment: Test A postemergence; conditions: for Kochia plant response rating: visual injury rating on 0 to 100 scale (0 no effect, 100 complete control)
# Outline: as §2
# [12] = test system: ryegrass, Italian (Italian ryegrass, Lolium multiflorum); experiment: Test A postemergence; conditions: for Ryegrass, Italian plant response rating: visual injury rating on 0 to 100 scale (0 no effect, 100 complete control)
# Outline: as §2
# [13] = test system: giant foxtail (Setaria faberii); experiment: Test A postemergence; conditions: for Foxtail, Giant plant response rating: visual injury rating on 0 to 100 scale (0 no effect, 100 complete control)
# Outline: as §2
# [14] = test system: ragweed (common ragweed, Ambrosia elatior); experiment: Test A postemergence; conditions: for Ragweed plant response rating: visual injury rating on 0 to 100 scale (0 no effect, 100 complete control)
# Outline: as §2
# [15] = test system: barnyardgrass (Echinochloa crus-galli); experiment: Test A postemergence; conditions: for Barnyardgrass plant response rating: visual injury rating on 0 to 100 scale (0 no effect, 100 complete control)
# Outline: as §2
# [16] = test system: corn (Zea mays); experiment: Test A postemergence; conditions: for Corn plant response rating: visual injury rating on 0 to 100 scale (0 no effect, 100 complete control)
# Outline: as §2
# [17] = test system: pigweed (Amaranthus retroflexus); experiment: Test A postemergence; conditions: for Pigweed plant response rating: visual injury rating on 0 to 100 scale (0 no effect, 100 complete control)
# Outline: as §2
# [18] = test system: blackgrass (Alopecurus myosuroides); experiment: Test A postemergence; conditions: for Blackgrass plant response rating: visual injury rating on 0 to 100 scale (0 no effect, 100 complete control)
# Outline: as §2
# [19] = test system: Galium (catchweed bedstraw, Galium aparine); experiment: Test A postemergence; conditions: for Galium plant response rating: visual injury rating on 0 to 100 scale (0 no effect, 100 complete control)
# Outline: as §2
# [20] = test system: wheat (Triticum aestivum); experiment: Test A postemergence; conditions: for Wheat plant response rating: visual injury rating on 0 to 100 scale (0 no effect, 100 complete control)
# Outline: as §2
# [21] = preemergence, 0 to 100 scale (0 no effect, 100 complete control)
# [22] = Preemergence, 500 g ai/ha, 0 is no effect, 100 is complete control
# [23] = 500 g ai/ha, postemergence, 0 to 100 scale, 0 no effect, 100 complete control
# [24] = Postemergence, 125 g ai/ha, visual injury, 0 to 100 scale (0 no effect, 100 complete control), approx. 10 d
# [25] = Preemergence, visual injury after approximately 10 d, 0 to 100 scale where 0 is no effect and 100 is complete control
# [26] = 125 g ai/ha, postemergence, approx. 10 d
# [27] = Postemergence, 500 g ai/ha, 0 to 100 scale where 0 is no effect and 100 is complete control
smiles,measurement,setting,value
O=C1NCC(c2ccccc2-c2ccccc2)C1C(=O)Nc1cccc(F)c1F (racemic) [Compound 379],"Plant response rating, Ducksalad",[1],0
same,"Plant response rating, Sedge, Umbrella",[2],0
same,"Plant response rating, Barnyardgrass",[3],0
same,"Plant response rating, Rice",[4],0
same,"Plant response rating, Kochia",[5]; [21],0
same,Kochia plant response rating (0 to 100 scale),[5]; [22],0
same,"Plant response rating, Ryegrass, Italian",[6]; [21],0
same,"Ryegrass, Italian plant response rating (0 to 100 scale)",[6]; [22],0
same,"Plant response rating, Foxtail, Giant",[7]; [21],0
same,"Foxtail, Giant plant response rating (0 to 100 scale)",[7]; [22],40
same,"Plant response rating, Ragweed",[8]; [21],0
same,Ragweed plant response rating (0 to 100 scale),[8]; [22],0
same,"Plant response rating, Barnyardgrass",[9]; [21],0
same,Barnyardgrass plant response rating (0 to 100 scale),[9]; [22],30
same,"Plant response rating, Pigweed",[10]; [21],0
same,Pigweed plant response rating (0 to 100 scale),[10]; [22],0
same,"Plant response rating, Kochia",[11]; [23],0
same,"Plant response rating, Kochia",[11]; [24],0
same,"Plant response rating, Ryegrass, Italian",[12]; [23],0
same,"Plant response rating, Ryegrass, Italian",[12]; [24],0
same,"Plant response rating, Foxtail, Giant",[13]; [23],20
same,"Plant response rating, Foxtail, Giant",[13]; [24],0
same,"Plant response rating, Ragweed",[14]; [23],0
same,"Plant response rating, Ragweed",[14]; [24],0
same,"Plant response rating, Barnyardgrass",[15]; [23],50
same,"Plant response rating, Barnyardgrass",[15]; [24],0
same,"Plant response rating, Corn",[16]; [23],0
same,"Plant response rating, Corn",[16]; [24],0
same,"Plant response rating, Pigweed",[17]; [23],0
same,"Plant response rating, Pigweed",[17]; [24],0
same,"Plant response rating, Blackgrass",[18]; [23],0
same,"Plant response rating, Blackgrass",[18]; [24],0
same,"Plant response rating, Galium",[19]; [23],0
same,"Plant response rating, Galium",[19]; [24],0
same,"Plant response rating, Wheat",[20]; [23],0
same,"Plant response rating, Wheat",[20]; [24],0
COCc1cccc(C2CNC(=O)C2C(=O)Nc2cccc(F)c2F)c1 (stereo not drawn) [Compound 497],"Plant response rating, Ducksalad",[1],90
same,"Plant response rating, Sedge, Umbrella",[2],0
same,"Plant response rating, Barnyardgrass",[3],70
same,"Plant response rating, Rice",[4],20
same,"Plant response rating, Kochia",[5]; [25],20
same,"Kochia plant response rating (0 to 100 scale, 0 is no effect, 100 is complete control)","[5]; Preemergence, 500 g ai/ha",50
same,"Plant response rating, Ryegrass, Italian",[6]; [25],0
same,"Ryegrass, Italian plant response rating (0 to 100 scale, 0 is no effect, 100 is complete control)","[6]; Preemergence, 500 g ai/ha",30
same,"Plant response rating, Foxtail, Giant",[7]; [25],90
same,"Foxtail, Giant plant response rating (0 to 100 scale, 0 is no effect, 100 is complete control)","[7]; Preemergence, 500 g ai/ha",90
same,"Plant response rating, Ragweed",[8]; [25],0
same,"Ragweed plant response rating (0 to 100 scale, 0 is no effect, 100 is complete control)","[8]; Preemergence, 500 g ai/ha",0
same,"Plant response rating, Barnyardgrass",[9]; [25],90
same,"Barnyardgrass plant response rating (0 to 100 scale, 0 is no effect, 100 is complete control)","[9]; Preemergence, 500 g ai/ha",90
same,"Plant response rating, Pigweed",[10]; [25],30
same,"Pigweed plant response rating (0 to 100 scale, 0 is no effect, 100 is complete control)","[10]; Preemergence, 500 g ai/ha",20
same,Kochia plant response rating,[11]; [26],30
same,"Plant response rating, Kochia",[11]; [27],30
same,"Ryegrass, Italian plant response rating",[12]; [26],0
same,"Plant response rating, Ryegrass, Italian",[12]; [27],20
same,"Foxtail, Giant plant response rating",[13]; [26],20
same,"Plant response rating, Foxtail, Giant",[13]; [27],50
same,Ragweed plant response rating,[14]; [26],0
same,"Plant response rating, Ragweed",[14]; [27],0
same,Barnyardgrass plant response rating,[15]; [26],60
same,"Plant response rating, Barnyardgrass",[15]; [27],80
same,Corn plant response rating,[16]; [26],0
same,"Plant response rating, Corn",[16]; [27],40
same,Pigweed plant response rating,[17]; [26],0
same,"Plant response rating, Pigweed",[17]; [27],0
same,Blackgrass plant response rating,[18]; [26],30
same,"Plant response rating, Blackgrass",[18]; [27],30
same,Galium plant response rating,[19]; [26],0
same,"Plant response rating, Galium",[19]; [27],50
same,Wheat plant response rating,[20]; [26],0
same,"Plant response rating, Wheat",[20]; [27],40
CCc1ccc(C2CNC(=O)C2C(=O)Nc2cccc(F)c2F)cc1 (stereo not drawn) [Compound 467],"Plant response rating, Ducksalad",[1],80
same,"Plant response rating, Sedge, Umbrella",[2],0
same,"Plant response rating, Barnyardgrass",[3],20
same,"Plant response rating, Rice",[4],0
same,"Plant response rating, Kochia",[5]; [21],30
same,"Kochia plant response rating (0 to 100 scale, 0 is no effect, 100 is complete control)","[5]; Preemergence, 500 g ai/ha",50
same,"Plant response rating, Ryegrass, Italian",[6]; [25],0
same,"Ryegrass, Italian plant response rating (0 to 100 scale, 0 is no effect, 100 is complete control)","[6]; Preemergence, 500 g ai/ha",20
same,"Plant response rating, Foxtail, Giant",[7]; [21],90
same,"Foxtail, Giant plant response rating (0 to 100 scale, 0 is no effect, 100 is complete control)","[7]; Preemergence, 500 g ai/ha",100
same,"Plant response rating, Ragweed",[8]; [25],30
same,"Ragweed plant response rating (0 to 100 scale, 0 is no effect, 100 is complete control)","[8]; Preemergence, 500 g ai/ha",70
same,"Plant response rating, Barnyardgrass",[9]; [21],90
same,"Barnyardgrass plant response rating (0 to 100 scale, 0 is no effect, 100 is complete control)","[9]; Preemergence, 500 g ai/ha",90
same,"Plant response rating, Pigweed",[10]; [25],0
same,"Pigweed plant response rating (0 to 100 scale, 0 is no effect, 100 is complete control)","[10]; Preemergence, 500 g ai/ha",0
same,Kochia plant response rating,[11]; [26],0
same,"Plant response rating, Kochia",[11]; [27],0
same,"Ryegrass, Italian plant response rating",[12]; [26],0
same,"Plant response rating, Ryegrass, Italian",[12]; [27],40
same,"Foxtail, Giant plant response rating",[13]; [26],40
same,"Plant response rating, Foxtail, Giant",[13]; [27],80
same,Ragweed plant response rating,[14]; [26],0
same,"Plant response rating, Ragweed",[14]; [27],20
same,Barnyardgrass plant response rating,[15]; [26],80
same,"Plant response rating, Barnyardgrass",[15]; [23],90
same,Corn plant response rating,[16]; [26],0
same,"Plant response rating, Corn",[16]; [23],20
same,Pigweed plant response rating,[17]; [26],0
same,"Plant response rating, Pigweed",[17]; [27],0
same,Blackgrass plant response rating,[18]; [26],0
same,"Plant response rating, Blackgrass",[18]; [23],0
same,Galium plant response rating,[19]; [26],0
same,"Plant response rating, Galium",[19]; [27],0
same,Wheat plant response rating,[20]; [26],0
same,"Plant response rating, Wheat",[20]; [27],30
